Reference: article PMC4509728, “Crystal Structures Reveal that the Reaction Mechanism of Imidazoleglycerol-Phosphate Dehydratase Is Controlled by Switching Mn(II) Coordination” (Structure(London, England:1993), 2015)

Molecular target: T1, IGPD2 (construct B) (Arabidopsis thaliana, UniProt O23346, E73Q)
T1 construct: gene HISN5B; construct B, residues 69-272, signal peptide removed and further N-terminal truncation; pET24a, E. coli BL21(DE3); homo 24mer, site formed by three chains
T1 sequence (O23346 69-272 E73Q): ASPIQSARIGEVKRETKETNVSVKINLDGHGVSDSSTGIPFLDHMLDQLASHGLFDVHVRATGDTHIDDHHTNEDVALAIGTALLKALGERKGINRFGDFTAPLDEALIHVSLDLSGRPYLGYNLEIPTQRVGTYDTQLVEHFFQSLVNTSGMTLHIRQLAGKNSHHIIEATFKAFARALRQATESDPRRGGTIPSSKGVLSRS
Test: X-ray crystallography of the co-crystal ([…] Å form A)
Assay type: binding
Settings: inactive mutant, Mn(II), mixed occupancy with 2R3S IGP at the same site

## O=P(O)(O)OC[C@H](O)[C@@H](O)c1cnc[nH]1 [2S3S diastereoisomer of IGP]
  X-ray crystallography of the co-crystal (1.12 Å form A): Both diastereoisomers bind at the same site
